Test results from PubChem BioAssay AID2060337 (Molecular Pharmacology Branch, DTP, NCI, 2025).
Where “and” joins values, the source holds several entries; their conditions need not be identical. Identical values can stand only once.

System: 832693-133-R-J1-PDC multi-cell spheroids, viability
Assay: Anticancer human tumor 832693-133-R-J1-PDC patient-derived head and neck squamous carcinoma cell line growth inhibition [IpAb]
Conditions: for viability, T/C: stronger effect = lower value
Summary of the method: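 Spheroids of 60% malignant cells, 25% HUVEC and 15% MSC were exposed to targeted agents combined with ipatasertib or abemaciclib. Doses started at or near clinical Cmax (10 microM when unknown) and fell in half-log steps.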

[1] = curve of first compound, second compound 0.01 µM
[2] = curve of first compound, second compound 0.0316 µM
[3] = curve of first compound, second compound 0.1 µM
[4] = curve of first compound, second compound 0.316 µM
[5] = curve of first compound, second compound 1 µM
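Also: spheroids exposed to the drugs for one week before the viability readout.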
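For viability, T/C in this document: 100% = DMSO vehicle control wells.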

CC(C)(C)c1cnc(CSc2cnc(NC(=O)C3CCNCC3)s2)o1 + CCN1CCN(Cc2ccc(Nc3ncc(F)c(-c4cc(F)c5nc(C)n(C(C)C)c5c4)n3)nc2)CC1
IC50 [1]: 577 nM
IC50 [2]: 223 nM
IC50 [3]: 161 nM
IC50 [4]: 149 nM
IC50 [5]: 134 nM
viability, T/C (second compound 0.01 µM, first compound 0.00949 µM): 107%
viability, T/C (second compound 0.01 µM, first compound 0.03 µM): 125%
viability, T/C (second compound 0.01 µM, first compound 0.0949 µM): 157%
viability, T/C (second compound 0.01 µM, first compound 0.3 µM): 114%
viability, T/C (second compound 0.01 µM, first compound 0.949 µM): 0.93%
viability, T/C (second compound 0.01 µM, first compound 3 µM): 1.32%
viability, T/C (second compound 0.0316 µM, first compound 0.00949 µM): 97.8%
viability, T/C (second compound 0.0316 µM, first compound 0.03 µM): 112%
viability, T/C (second compound 0.0316 µM, first compound 0.0949 µM): 133%
viability, T/C (second compound 0.0316 µM, first compound 0.3 µM): 27.8%
viability, T/C (second compound 0.0316 µM, first compound 0.949 µM): 0.9%
viability, T/C (second compound 0.0316 µM, first compound 3 µM): 1.39%
viability, T/C (second compound 0.1 µM, first compound 0.00949 µM): 73.8%
viability, T/C (second compound 0.1 µM, first compound 0.03 µM): 93.5%
viability, T/C (second compound 0.1 µM, first compound 0.0949 µM): 104%
viability, T/C (second compound 0.1 µM, first compound 0.3 µM): 6.06%
viability, T/C (second compound 0.1 µM, first compound 0.949 µM): 0.75%
viability, T/C (second compound 0.1 µM, first compound 3 µM): 1.11%
viability, T/C (second compound 0.316 µM, first compound 0.00949 µM): 66.7%
viability, T/C (second compound 0.316 µM, first compound 0.03 µM): 77.5%
viability, T/C (second compound 0.316 µM, first compound 0.0949 µM): 100%
viability, T/C (second compound 0.316 µM, first compound 0.3 µM): 1.34%
viability, T/C (second compound 0.316 µM, first compound 0.949 µM): 1.19%
viability, T/C (second compound 0.316 µM, first compound 3 µM): 1.26%
viability, T/C (second compound 1 µM, first compound 0.00949 µM): 67.9%
viability, T/C (second compound 1 µM, first compound 0.03 µM): 81.3%
viability, T/C (second compound 1 µM, first compound 0.0949 µM): 70.7%
viability, T/C (second compound 1 µM, first compound 0.3 µM): 1.74%
viability, T/C (second compound 1 µM, first compound 0.949 µM): 1.59%
viability, T/C (second compound 1 µM, first compound 3 µM): 1.53%

CC(C)(C)c1cnc(CSc2cnc(NC(=O)C3CCNCC3)s2)o1
viability, T/C (compound 0.00949 µM): 115% and 100%
viability, T/C (compound 0.03 µM): 127%
viability, T/C (compound 0.0949 µM): 143% and 156%
viability, T/C (compound 0.3 µM): 111% and 164%
viability, T/C (compound 0.949 µM): 1.31% and 0.89%
viability, T/C (compound 3 µM): 1.26% and 1.3%
IC50 (curve of compound): 570 nM and 626 nM

Cn1nccc1Nc1nccc(-c2ccn(C(CO)c3ccc(Cl)c(F)c3)c(=O)c2)n1 (configuration not stated) + CCN1CCN(Cc2ccc(Nc3ncc(F)c(-c4cc(F)c5nc(C)n(C(C)C)c5c4)n3)nc2)CC1
IC50 [1]: 1140 nM
IC50 [2]: 852 nM
IC50 [3]: 444 nM
IC50 [4]: 617 nM
IC50 [5]: 5370 nM
viability, T/C (second compound 0.01 µM, first compound 0.0316 µM): 87.8%
viability, T/C (second compound 0.01 µM, first compound 0.1 µM): 83.6%
viability, T/C (second compound 0.01 µM, first compound 0.316 µM): 67.6%
viability, T/C (second compound 0.01 µM, first compound 1 µM): 55.9%
viability, T/C (second compound 0.01 µM, first compound 3.16 µM): 31.9%
viability, T/C (second compound 0.01 µM, first compound 10 µM): 30.3%
viability, T/C (second compound 0.0316 µM, first compound 0.0316 µM): 78%
viability, T/C (second compound 0.0316 µM, first compound 0.1 µM): 68.1%
viability, T/C (second compound 0.0316 µM, first compound 0.316 µM): 61.2%
viability, T/C (second compound 0.0316 µM, first compound 1 µM): 52.7%
viability, T/C (second compound 0.0316 µM, first compound 3.16 µM): 31%
viability, T/C (second compound 0.0316 µM, first compound 10 µM): 34.2%
viability, T/C (second compound 0.1 µM, first compound 0.0316 µM): 70.7%
viability, T/C (second compound 0.1 µM, first compound 0.1 µM): 59.5%
viability, T/C (second compound 0.1 µM, first compound 0.316 µM): 53.7%
viability, T/C (second compound 0.1 µM, first compound 1 µM): 47.2%
viability, T/C (second compound 0.1 µM, first compound 3.16 µM): 27.1%
viability, T/C (second compound 0.1 µM, first compound 10 µM): 32.3%
viability, T/C (second compound 0.316 µM, first compound 0.0316 µM): 68.7%
viability, T/C (second compound 0.316 µM, first compound 0.1 µM): 59.5%
viability, T/C (second compound 0.316 µM, first compound 0.316 µM): 53.3%
viability, T/C (second compound 0.316 µM, first compound 1 µM): 50.5%
viability, T/C (second compound 0.316 µM, first compound 3.16 µM): 36.8%
viability, T/C (second compound 0.316 µM, first compound 10 µM): 31.9%
viability, T/C (second compound 1 µM, first compound 0.0316 µM): 74.9%
viability, T/C (second compound 1 µM, first compound 0.1 µM): 82.7%
viability, T/C (second compound 1 µM, first compound 0.316 µM): 63.6%
viability, T/C (second compound 1 µM, first compound 1 µM): 62.7%
viability, T/C (second compound 1 µM, first compound 3.16 µM): 57.8%
viability, T/C (second compound 1 µM, first compound 10 µM): 43.2%
